Test results published in patent US5985822A, “Inhibition of glial cell proliferation with N-CAM homophilic peptides” (The Scripps Research Institute, priority 1995, dated 1999).

Assays:
[1] = system: N-CAM; experiment: Levels of N-CAM expression in astrocytes by Western blotting (antisense experiments); assay type: cell-based, rat; details: oligonucleotide added for 48 hours
Experimental: The amounts of N-CAM present in astrocytes were quantified by Western blotting. Cultures were grown as described and cellular material was lysed in buffer (phosphate buffered saline, pH 7.4, containing 0.5% NP-40, 350 μg/ml PMSF, 2 μg/ml aprotinin, 0.5 μg/ml leupeptin, and 0.7 μg/ml pepstatin A) at 4° C. Standard Western blotting techniques were employed either using cell lysate directly or after N-CAM immunoprecipitation. [^125 I]-Immunolabeled N-CAM was estimated by densitometry on a Molecular Dynamics PhosporImager using ImageQuant software.
[…]. After deprotection, the oligonucleotides were purified using HPLC, ethanol precipitated, solubilized in distilled water and added to the culture medium at the indicated concentrations.

[2] = system: rat forebrain astrocytes in primary culture; experiment: Astrocyte proliferation assay ([3H]-thymidine incorporation normalized to [35S]-methionine); assay type: cell-based; details: for effect of oligonucleotide preincubation on inhibition of proliferation by N-CAM: 200 nM oligonucleotide 48 hours before 2 μg/ml N-CAM; for effect of oligonucleotide alone on proliferation: 200 nM, no N-CAM added
Experimental: Primary cultures of astrocytes were prepared from the forebrains of 4-5 day old neonatal rats. After decapitation and removal of the forebrains from the skull, the meninges were carefully peeled off, and forebrain tissue was triturated in sterile phosphate buffered saline (PBS) using firepolished pipettes. The resulting suspension of tissue fragments was incubated in Hank's balanced salt solution (Gibco BRL) with 2.5 mg/ml trypsin, 1 mM EDTA and 0.1 mg/ml DNase (Boehringer) at 37° C. for 15 minutes. […] The pellet was resuspended in serum free medium (SFM) consisting of Dulbecco's Modified Eagle Medium (D-MEM), 2 mM L-glutamine, 50 U/ml penicillin G sodium and 50 μg/ml streptomycin sulfate (all from Gibco BRL) supplemented by 10% (vol/vol) fetal bovine serum (FBS). The cells were transferred to a standard 100 mm tissue culture dish (Falcon) and incubated at 37° C. for 1-2 hours. After mild shaking, the supernatant containing unattached cells was transferred to a 100 mm collagen-coated dish. […] Cell samples were checked regularly for the expression of GFAP, a marker for astrocytes.
After cell attachment, the culture medium was exchanged for SFM. In antisense experiments, oligonucleotides were added at the same time (T=0). […] After another 12 hours (at T=60), [^3 H]-thymidine (New England Nuclear, 20 Ci/mmol) was added (0.38 μM, 10 μCi/ml). Following an additional 12 hours (T=72), the wells were drained, counts precipitated by ice-cold […] trichloroacetic acid, and the plates left to dry. Counts were solubilized overnight by adding 100 μl 1 N KOH to each well, neutralized with 100 μl 1 N HCl, transferred to liquid scintillation vials and counted in 3 ml of Beckman Ready Safe liquid scintillation cocktail on a Packard 1600 TR counter. […] In this paper, proliferation is expressed as [^3 H]-thymidine incorporation normalized to [35]-methionine incorporation and calculated as [^3 H] dpm/ [35] dpm.

Row | Substance | effect on N-CAM expression (in words) [1] | effect of oligonucleotide preincubation on inhibition of proliferation by N-CAM [2] | effect of oligonucleotide alone on proliferation [2] | N-CAM level (sum of all molecular forms, mostly 140 kD and 120 kD) ([1]; mean ± S.E.M. (n))
1 | 5'-AGAUCCUUAG WUCGCAGCAUUGUA-3' (antisense AGAUCCUUAGUUCGCAGCAUUGUA; phosphorothioate linkages, further chemistry not given here) [N-CAM antisense RNA, phosphorothioate oligoribonucleotide complementary to position 205 to 228 of rat N-CAM] | significantly reduced N-CAM expression | weaker inhibitory effect of N-CAM on proliferation | no effect on proliferation | –
2 | 5'-GUCCAUGUACAUCUAGUCAGUUGA-3 (chemistry not given here) [random antisense RNA] | no effect on N-CAM expression | no such effect | no effect on proliferation | 87 ± 18 % Control
